From patent US8956824B2, “Methods for identifying allosteric modulators of ship polypeptides” (British Columbia Cancer Agency Branch, priority 2006, dated 2015) come the findings set out here.

Entries after “also recorded” stand apart in the source; their conditions may differ.

The target in one assay is T1, PH domain deleted SHIP1 (Mus musculus, UniProt Q9ES52, DEL292-400/E403A/P402A/Q401A).
T1 construct: Full length, wild-type SHIP1 enzyme (wt) or SHIP1 enzyme in which the PH or C2 domains were deleted; His6 (N); made in house; 293T cells are stated only for the wild-type enzyme
T1 sequence (Q9ES52 with tags, fused parts or gaps DEL292-400/Q401A/P402A/E403A): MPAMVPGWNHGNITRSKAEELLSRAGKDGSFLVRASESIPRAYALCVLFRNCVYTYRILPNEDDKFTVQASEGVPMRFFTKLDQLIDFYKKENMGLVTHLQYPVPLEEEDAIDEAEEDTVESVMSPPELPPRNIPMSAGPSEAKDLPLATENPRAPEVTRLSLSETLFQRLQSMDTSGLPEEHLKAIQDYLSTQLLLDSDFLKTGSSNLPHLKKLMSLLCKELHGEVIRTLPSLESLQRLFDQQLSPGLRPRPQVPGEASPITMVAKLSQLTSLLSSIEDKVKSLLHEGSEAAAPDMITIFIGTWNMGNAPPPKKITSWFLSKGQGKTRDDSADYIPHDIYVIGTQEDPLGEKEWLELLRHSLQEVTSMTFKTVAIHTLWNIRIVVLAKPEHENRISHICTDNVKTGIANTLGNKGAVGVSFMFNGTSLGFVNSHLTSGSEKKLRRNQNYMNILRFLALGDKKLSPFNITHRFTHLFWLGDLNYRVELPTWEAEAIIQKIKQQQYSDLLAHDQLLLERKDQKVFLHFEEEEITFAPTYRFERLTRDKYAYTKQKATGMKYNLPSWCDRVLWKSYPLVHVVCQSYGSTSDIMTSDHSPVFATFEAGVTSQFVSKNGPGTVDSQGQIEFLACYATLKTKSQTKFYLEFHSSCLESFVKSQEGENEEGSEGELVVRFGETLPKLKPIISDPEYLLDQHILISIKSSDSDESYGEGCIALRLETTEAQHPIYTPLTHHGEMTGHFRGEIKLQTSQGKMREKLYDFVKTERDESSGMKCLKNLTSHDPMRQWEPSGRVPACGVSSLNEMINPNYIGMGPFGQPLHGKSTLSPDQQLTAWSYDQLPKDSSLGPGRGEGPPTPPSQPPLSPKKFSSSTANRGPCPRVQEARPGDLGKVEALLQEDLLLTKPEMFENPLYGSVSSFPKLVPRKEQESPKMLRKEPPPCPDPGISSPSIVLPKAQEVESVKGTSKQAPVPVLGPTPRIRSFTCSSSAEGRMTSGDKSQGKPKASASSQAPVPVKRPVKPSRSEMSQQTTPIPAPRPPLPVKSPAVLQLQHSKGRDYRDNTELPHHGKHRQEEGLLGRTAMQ
Nature of the assay: In vitro SHIP enzyme assay, PH domain deleted SHIP1. It is filed as biochemical. The settings on record: FIG. 10, FIG. 14A. From the text:
The SHIP1 PH domain deletion mutant and an isolated PH domain construct were generated using techniques similar to those used for the C2 domain. More specifically, the PH domain (amino acids 984-1319) was deleted from the murine SHIP (mSHIP) cDNA as follows: using pME18S-mSHIP1 as a template, a 527 by PCR fragment (“Upstream Fragment”) was generated using the indicated primers to generate a fragment corresponding to sequence immediately upstream of the SHIP PH domain within which resides a unique AccI restriction cut site. A Nod restriction cut site was also introduced to the 3′ end of this fragment. The PCR product was digested with Acd and Nod, and gel purified. Using pME18S-mSHIP1 as a template, a 776 by PCR fragment (“Downstream Fragment”) was generated using the indicated primers corresponding to sequence immediately downstream of the SHIP PH domain within which resides a unique ClaI restriction cut site. A Nod restriction cut site was introduced to the 5′ end of this fragment. […]
In vitro SHIP enzyme assay. […] The reaction was allowed to proceed for 20 min at 37° C. and the amount of inorganic phosphate released assessed by the addition of Malachite Green reagent followed by an absorbance measurement at 650 nm (15). […] Enzyme data are expressed as the mean of triplicates+/−SEM. […]

Assay [1] has as its system SHIP1+/+ and SHIP1−/− BMmφs. The experiment in a line: LPS-stimulated PKB phosphorylation in BMmφs (immunoblot). The assay is classed as cell-based, mouse. The settings on record: 30 min pretreatment, 10 ng/mL LPS 15 min. As for the experimental part:
LPS stimulation of BMmφs. For the analysis of LPS-stimulated TNFα production, 2 ×10^5 cells were plated the night before in 24 well plates in BMmφp medium. The next day, the medium was changed and AQX-016A or carrier was added to cells at the indicated concentrations for 30 min prior to the addition of 10 ng/mL LPS. Supernatants were collected after 1 hr for TNFα determination by ELISA (BD Biosciences, Mississauga, ON, Canada). Data are expressed as the mean +/− SEM of triplicates and experiments were repeated 3 times. For analysis of intracellular signaling, 2×10^6 cells were plated the night before in 6 cm tissue culture plates. The next day, the cells were cultured in BMmφp medium without M-CSF for 1 hr at 37° C. and then pretreated with AQX-016A or carrier for 30 min prior to the addition of 10 ng/mL LPS for 15 min. Cells were washed with 4° C. PBS and resuspended in lysis buffer (50 mM Hepes, 2 mM EDTA, 1mM NaVO4 , 100 mM NaF, 50 mM NaPPi and 1%NP4O) supplemented with COMPLETE™ Protease Inhibitor Cocktail (Roche, Montreal, Canada). Lysates were rocked at 4° C. for 30 min and clarified by centrifuging 20 min at 12000×g. Lysates were then made 1× in Laemmli's buffer, boiled 2 min and loaded onto 7.5% SDS polyacrylamide cells. […]
A general note: A western blot detects proteins with antibodies after separation by electrophoresis.

With `Cc1cc(O)cc2c1[C@]1(C)CC[C@H]3C(C)(C)CCC[C@]3(C)[C@H]1C2` [AQX-MN100], the “activation of SHIP1 with PH domain deleted” value on PH domain deleted SHIP1 was “attenuates but does not prevent activation; also recorded: abrogates ability of SHIP to be activated”.

In the case of “phosphatidylinositol-3,4-bisphosphate [PI-3,4-P2, reference compound]”, the “activation of SHIP1 with PH domain deleted” value at PH domain deleted SHIP1 was “abrogates ability of SHIP to be activated”.

For the compound `Cc1cc(O)c(O)c2c1[C@]1(C)CC[C@H]3C(C)(C)CCC[C@]3(C)[C@H]1C2` [AQX-016A], the “LPS-stimulated PKB phosphorylation, SHIP1+/+ vs SHIP1−/− BMmφs” value in assay [1] is given as “preferentially inhibited, in a dose dependent manner, LPS-stimulated PKB phosphorylation in SHIP1+/+ but not in SHIP1−/−”.
